Data taken from PMC5343402, “Gossypol has anti-cancer effects by dual-targeting MDM2 and VEGF in human breast cancer” (Breast Cancer Research : BCR, 2017).

Target: T1, MDM2 (RING protein) (Homo sapiens, UniProt Q00987)
T1 construct: MDM2 RING protein
Assay: isothermal titration calorimetry (auto-iTC200, one-site fit)
Assay type: binding

T1 sequence (Q00987 whole entry): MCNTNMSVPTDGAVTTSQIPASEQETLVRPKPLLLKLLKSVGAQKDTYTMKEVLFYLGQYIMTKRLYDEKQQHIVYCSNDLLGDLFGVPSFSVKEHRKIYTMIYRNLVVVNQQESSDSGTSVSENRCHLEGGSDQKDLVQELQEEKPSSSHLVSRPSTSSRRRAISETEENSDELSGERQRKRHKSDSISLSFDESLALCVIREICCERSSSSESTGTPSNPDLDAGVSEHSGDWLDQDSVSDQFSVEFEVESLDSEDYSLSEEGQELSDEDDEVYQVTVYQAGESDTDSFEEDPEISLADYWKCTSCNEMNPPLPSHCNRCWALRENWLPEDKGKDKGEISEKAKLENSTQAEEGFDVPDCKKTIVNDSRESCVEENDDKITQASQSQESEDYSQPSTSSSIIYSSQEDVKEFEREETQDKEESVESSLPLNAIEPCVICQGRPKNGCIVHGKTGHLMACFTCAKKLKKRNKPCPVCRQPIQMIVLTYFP

SMILES: Cc1cc2c(C(C)C)c(O)c(O)c(C=O)c2c(O)c1-c1c(C)cc2c(C(C)C)c(O)c(O)c(C=O)c2c1O [MX11, gossypol]
- Kd: 5.21 µM
